Read-outs that look alike come from different tables or passages of the source.
Tests used:
[1] = target: T1, PARN (Homo sapiens, UniProt O95453); experiment: Fluorescence-based biochemical assay of PARN ribonuclease activity; settings: for inhibition of PARN ribonuclease activity (in words): Fig. 3, compounds used at 10 μM (5h–k); for IC50: fluorescence-based biochemical assay, ± standard error of the mean (n = 3)
T1 sequence (O95453 1-639): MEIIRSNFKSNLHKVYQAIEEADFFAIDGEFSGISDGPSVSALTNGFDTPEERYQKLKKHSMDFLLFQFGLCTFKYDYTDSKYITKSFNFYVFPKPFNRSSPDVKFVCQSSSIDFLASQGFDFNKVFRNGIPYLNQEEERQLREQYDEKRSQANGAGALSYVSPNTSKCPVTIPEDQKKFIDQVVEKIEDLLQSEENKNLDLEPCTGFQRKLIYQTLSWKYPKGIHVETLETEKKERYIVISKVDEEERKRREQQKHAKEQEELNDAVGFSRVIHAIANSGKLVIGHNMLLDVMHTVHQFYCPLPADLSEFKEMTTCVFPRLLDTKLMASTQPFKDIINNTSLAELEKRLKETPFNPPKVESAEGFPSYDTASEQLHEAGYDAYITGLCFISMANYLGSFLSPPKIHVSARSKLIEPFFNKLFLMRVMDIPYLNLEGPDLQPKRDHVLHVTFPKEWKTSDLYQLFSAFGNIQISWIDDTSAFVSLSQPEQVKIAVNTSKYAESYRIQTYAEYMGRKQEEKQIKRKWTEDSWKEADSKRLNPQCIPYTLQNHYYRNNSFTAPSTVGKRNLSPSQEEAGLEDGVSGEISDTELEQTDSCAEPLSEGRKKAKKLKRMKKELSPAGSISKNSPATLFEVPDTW
Method: The selectivity of the compounds was determined by comparing their activities against Caf1 and two related deadenylase enzymes: the PARN ribonuclease, which has a conserved nuclease domain similar to that of Caf1, and Ccr4, whose biological function is related to Caf1, but which contains a dissimilar EEP-type nuclease domain.[22]
Error bars represent the standard deviation.

[2] = target: Caf1 (Homo sapiens, UniProt Q9UIV1); experiment: Fluorescence-based biochemical assay of Caf1 ribonuclease activity
Method: Following LC–MS and solubility analysis, five compounds were evaluated for their ability to inhibit Caf1 activity using a fluorescence-based biochemical assay (Fig. 1B).[22]
Reactions contained no enzyme (control), complete reactions (enzyme) or complete reactions in the presence of the indicated compound. […] Error bars represent the standard deviation.

[3] = read-out: IC50 (Caf1), fluorescence-based biochemical assay, ± standard error of the mean (n = 3)

Sequence of Caf1 (Q9UIV1 whole entry): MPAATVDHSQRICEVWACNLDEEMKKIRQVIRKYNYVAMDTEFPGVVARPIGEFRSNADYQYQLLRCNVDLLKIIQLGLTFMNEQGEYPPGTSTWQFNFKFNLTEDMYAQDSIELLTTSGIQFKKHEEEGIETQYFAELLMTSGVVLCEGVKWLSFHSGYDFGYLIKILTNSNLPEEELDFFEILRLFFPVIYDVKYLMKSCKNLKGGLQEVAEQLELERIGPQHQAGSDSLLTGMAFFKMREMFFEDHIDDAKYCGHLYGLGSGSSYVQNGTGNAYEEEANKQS

Row | Compound | IC50 [2, 3] [µM] | IC50 [1] [µM] | further results
1 | O=c1[nH]c2ncn(CCc3ccccc3)c2c(=O)n1O [Compound 5j] | – | – | inhibition of PARN ribonuclease activity (in words) [1]: also inhibited the related deadenylase PARN
2 | O=c1[nH]c2ncn(CCCc3ccccc3)c2c(=O)n1O [Compound 5f] | 13.3 ± 2.3 | – | –
3 | O=c1[nH]c2ncn(Cc3ccccc3)c2c(=O)n1O [Compound 5a] | 10.4 ± 0.4 | 84.1 ± 6.7 | IC50 [2]: 22.8 ± 0.1 µM
4 | O=c1[nH]c2cccnc2c(=O)n1O [NSC-193557] | 525 ± 13.9 | – | –
5 | CN(C)CCCn1c(=O)n(O)c(=O)c2c1ncn2CCc1ccccc1 [Compound 8j] | 0.59 ± 0.11 | 23.9 ± 3.7 | increased activity against Caf1 compared to compound 5a [2]: > 10 fold; potency against Caf1 relative to all previously identified compounds ([2]; compared with the inhibitors of ref 22): > 20 fold; activity versus PARN (in words) ([1]; Table 2, Fig. 3, 3 μM): displayed reduced activity versus PARN
6 | O=c1[nH]c2ncn(CCc3cccs3)c2c(=O)n1O [Compound 5h] | 3.6 ± 1.1 | – | inhibition of PARN ribonuclease activity (in words) [1]: also inhibited the related deadenylase PARN
7 | O=c1c2c(ncn2CCc2ccccc2)n(Cc2ccccc2)c(=O)n1O [Compound 8i] | 14.5 ± 0.9 | – | –
8 | O=c1[nH]c2ncn(Cc3ccncc3)c2c(=O)n1O [Compound 5e] | – | 245 ± 20 | –
9 | O=c1[nH]c2ncn(Cc3cccnc3)c2c(=O)n1O [Compound 5d] | 6.6 ± 0.7 | 125 ± 32 | –
10 | Cn1c(=O)n(O)c(=O)c2c1ncn2CCc1ccccc1 [Compound 8a] | 9.3 ± 1.7 | – | –
11 | O=c1[nH]c2ncn(CCc3ccccn3)c2c(=O)n1O [Compound 5k] | 4 ± 1.1 | – | inhibition of PARN ribonuclease activity (in words) [1]: also inhibited the related deadenylase PARN
12 | CCCCOCCCn1cnc2[nH]c(=O)n(O)c(=O)c21 [Compound 5g] | 20.6 ± 5.8 | – | –
13 | O=c1[nH]c2cnn(-c3ccccc3)c2c(=O)n1O [NSC-104148] | 38.6 ± 2.79 | – | –
14 | O=c1[nH]c2ncsc2c(=O)n1O [NSC-116567] | 28.7 ± 3.8 | – | –
15 | O=c1c2c(ncn2CCc2ccccc2)n(CCN2CCOCC2)c(=O)n1O [Compound 8k] | 8.7 ± 0.3 | – | –
16 | O=c1[nH]c2ncn(Cc3ccccn3)c2c(=O)n1O [Compound 5c] | 10.6 ± 2.7 | 119 ± 25 | –

Source: PMC4577731, “Discovery, synthesis and biochemical profiling of purine-2,6-dione derivatives as inhibitors of the human poly(A)-selective ribonuclease Caf1” (Bioorganic & Medicinal Chemistry Letters, 2015)
